Source: patent publication US20130131008A1, “LIPOPHILIC MONOPHOSPHORYLATED DERIVATIVES AND NANOPARTICLES” (BOARD OF REGENTS, THE UNIVERSITY OF TEXAS SYSTEM, priority 2011, published 2013)
Like-named read-outs stand apart in the source and are kept apart here.

Tests used:
L1210 10K cells = test: In vitro cytotoxicity assay (MTT), 72 h, dCK deficient cells; type: cell-based, murine
Source text: (§1) Human leukemia cell line CCRF-CEM (CCL-119), human pancreatic cancer cell lines PANC-1 (CRL-1469), MIA PaCa-2 (CRL-1420), and BxPC-3 (CRL-1687), human breast adenocarcinoma cell line MCF-7 (HTB-22), and mouse lung cancer cell line TC-1 (CRL-2785) were from the American Type Culture Collection (Rockville, Md.). CCRF-CEM-AraC-8C cells (hENT1 deficient) and CCRF-CEM/dCK^−/− cells (dCK deficient) were kindly provided by Dr. Buddy Ullmann (Oregon Health & Science University, Portland, Oreg.) and Dr. Margaret Black (Washington State University, Pullman, Wash.), respectively. L1210 wt and L1210 10K were kindly supplied by Dr. Lars Petter Jordheim (Université Claude Bernard Lyon I, Lyon, France). TC-1-GR cells were previously developed in our lab. CCRF-CEM, CCRF-CEM-AraC-8C, CCRF-CEM/dCK^−/−, L1210 wt, L1210 10K, TC-1, and TC-1-GR cells were cultured in RPMI 1640 medium. MCF-7 and PANC-1 cells were cultured in Dulbecco's modified Eagle medium (DMEM), MIA PaCa-2 cells were cultured in DMEM medium with 2.5% horse serum. All media were supplemented with 10% fetal bovine serum (FBS), 100 U/mL of penicillin, and 100 μg/mL of streptomycin (all from Invitrogen, Carlsbad, Calif.).
(§2) Cells (5,000/well) were seeded in 96-well plates. After overnight incubation, they were treated with various concentrations of gemcitabine HCl, gemcitabine derivatives, or gemcitabine derivatives in nanoparticles at 37° C., 5% CO2. TC-1 and TC-1-GR cells were incubated for 48 h. CCRF-CEM, CCRF-CEM-AraC-8C, CCRF-CEM/dCK^−/−, L1210 wt, L1210 10K, and MCF-7 cells were incubated for 72 h, and MIA PaCa-2 and PANC-1 for 96 h. […] The number of viable cells after the incubation was determined using an MTT assay. […] Absorbance was measured using a BioTek Synergy™ HT Multi-Mode Microplate Reader (BioTek Instruments, Winooski, Vt.) at 570 nm and 630 nm. The fraction of affected (dead) cells (Fa) and the fraction of unaffected (live) cells (Fu) at every dose were calculated, and the Log(Fa/Fu) values were plotted against the Log(concentration of gemcitabine). […]

CCRF-CEM-AraC-8C cells = test: In vitro cytotoxicity assay (MTT), 72 h, hENT1 deficient cells; type: cell-based, human; settings: for Ratio of IC50 in CCRF-CEM-AraC-8C to that in CCRF-CEM: HCl
Source text: as §1
(§3) Cells (5,000/well) were seeded in 96-well plates. After overnight incubation, they were treated with various concentrations of gemcitabine HCl, gemcitabine derivatives, or gemcitabine derivatives in nanoparticles at 37° C., 5% CO2. TC-1 and TC-1-GR cells were incubated for 48 h. CCRF-CEM, CCRF-CEM-AraC-8C, CCRF-CEM/dCK^−/−, L1210 wt, L1210 10K, and MCF-7 cells were incubated for 72 h, and MIA PaCa-2 and PANC-1 for 96 h. Gemcitabine HCl was dissolved in phosphate-buffered saline (PBS), and gemcitabine derivatives were dissolved in dimethyl sulfoxide (DMSO). […] The number of viable cells after the incubation was determined using an MTT assay. Briefly, 3-(4,5-dimethylthiazol-2-yl)-2,5-diphenyltetrazolium bromide (20 μl, 5 mg/mL) was added in each well and incubated for 3 h. Formazan crystals were solubilized with acidified isopropanol (150 μl) (for CCRF-CEM, CCRF-CEM-AraC-8C, CCRF-CEM/dCK^−/−, L1210 wt, and L1210 10K cells) or DMSO (150 μl) (for TC-1, TC-1-GR, MCF-7, PANC-1, and MIA PaCa-2). Absorbance was measured using a BioTek Synergy™ HT Multi-Mode Microplate Reader (BioTek Instruments, Winooski, Vt.) at 570 nm and 630 nm. The fraction of affected (dead) cells (Fa) and the fraction of unaffected (live) cells (Fu) at every dose were calculated, and the Log(Fa/Fu) values were plotted against the Log(concentration of gemcitabine). IC50 was the dose at Log(Fa/Fu)=0, See e.g., Chou, T. C. & Talalay, P., 1984, Adv. Enzyme Regul. 22:27-55. The experiment was repeated at least three times.

CCRF-CEM cells = test: In vitro cytotoxicity assay (MTT), 72 h; type: cell-based, human; settings: Homo sapiens, CCRF-CEM, 72 h incubation
Source text: as §1, §3

CCRF-CEM/dCK−/− cells = test: In vitro cytotoxicity assay (MTT), 72 h, dCK deficient cells; type: cell-based, human
Source text: as §1, §2

TC-1-GR tumors = settings: mice with pre-established TC-1-GR tumors; cited from earlier work
B16-F10 melanoma tumor = test: Antitumor activity of GemC18/PEG-C18 micelles in mice with B16-F10 tumors (Example 20); type: in vivo, mouse; settings: C57BL/6 mice, tail vein injection, 0.283 mg GemHCl or molar equivalent GemC18; 2 doses (micelles 3 doses), 3 days apart
Procedure: The in vivo antitumor activity of GemC18/PEG-C18 micelles was evaluated in C57BL/6 mice with subcutaneously inoculated B16-F10 cells (5.0×10^5/mouse) in the right flank. Treatments were given 6 days after tumor cell inoculation by tail vein injection with normal saline, Gemcitabine HCl (GemHCl) solution, GemC18 solution, blank PEG-C18 micelles, or GemC18/PEG-C18 micelles. The dose was 0.283 mg of GemHCl or molar equivalent amount of GemC18. All groups received a second dose three days after the first dose, while the GemC18/PEG-C18 micelle group also received a third dose 3 days after the second dose. Tumor sizes were measured with calipers in two perpendicular diameters every day and reported as tumor volume (V=½ [a×b^2], a=longer diameter, b=shorter diameter).

TC-1-GR cells = test: cells; type: cell-based
Source text: as §1, §3

TC-1 cells = test: In vitro cytotoxicity assay (MTT), 48 h; type: cell-based; settings: Mus musculus, TC-1, 48 h incubation
Source text: as §1, §3

PANC-1 cells [1] = test: In vitro cytotoxicity assay (MTT), 96 h, RRM2 over-expressing cells; type: cell-based, human; settings: for Ratio of IC50 in PANC-1 to that in MIA PaCa-2: HCl
Source text: as §1, §3

PANC-1 cells [2] = settings: literature value; read-out: IC50 in PANC-1 cells reported by Duxbury et al.; cited from earlier work
L1210 wt cells = test: In vitro cytotoxicity assay (MTT), 72 h; type: cell-based, murine; settings: Mus musculus, 72 h incubation
Source text: as §1, with “MCF-7 and PANC-1 cells were cultured in Dulbecco's modified Eagle medium (DMEM), MIA PaCa-2 cells were cultured in DMEM medium with 2.5% horse serum. All media were supplemented with 10% fetal bovine serum (FBS), 100 U/mL of penicillin, and 100 μg/mL of streptomycin (all from Invitrogen, Carlsbad, Calif.).” left out
Cells (5,000/well) were seeded in 96-well plates. […] The number of viable cells after the incubation was determined using an MTT assay. […] Absorbance was measured using a BioTek Synergy™ HT Multi-Mode Microplate Reader (BioTek Instruments, Winooski, Vt.) at 570 nm and 630 nm. The fraction of affected (dead) cells (Fa) and the fraction of unaffected (live) cells (Fu) at every dose were calculated, and the Log(Fa/Fu) values were plotted against the Log(concentration of gemcitabine). […]

[3] = IC50 of gemcitabine HCl divided by that of the derivatives or derivatives in nanoparticles

## Cl.Nc1ccn([C@@H]2O[C@H](CO)[C@@H](O)C2(F)F)c(=O)n1 [Gemcitabine HCl, 2′,2′-difluorodeoxycytidine HCl, reference compound]
L1210 10K cells
  Ratio of IC50 in L1210 10K to that in L1210 wt: 17,046
L1210 10K cells; IC50 of gemcitabine HCl divided by that of the nanoparticles
  Ratio of IC50 values in L1210 10K cells: 1
L1210 10K cells; Mus musculus, L1210, MTT, 72 h incubation, dCK deficient
  IC50: 22200 ± 3700 nM
CCRF-CEM-AraC-8C cells
  Ratio of IC50 in CCRF-CEM-AraC-8C to that in CCRF-CEM: 333
CCRF-CEM-AraC-8C cells; Homo sapiens, MTT, 72 h incubation, hENT1 deficient
  IC50: 998.8 ± 9.4 nM
CCRF-CEM-AraC-8C cells; [3]
  Ratio of IC50 values in CEM-AraC-8C cells: 1
CCRF-CEM-AraC-8C cells; listed as gemcitabine HCl
  Ratio of IC50 in CCRF-CEM-AraC-8C to that in CCRF-CEM: 344
CCRF-CEM cells
  IC50: 2.9 ± 1.8 nM
CCRF-CEM/dCK−/− cells
  Ratio of IC50 in CCRF-CEM/dCK−/− to that in CCRF-CEM: 82,897
CCRF-CEM/dCK−/− cells; Homo sapiens, CCRF-CEM, MTT, 72 h incubation, dCK deficient
  IC50: 240000 ± 29000 nM
TC-1-GR tumors
  TC-1-GR tumor growth in mice (previous study): did not show any significant anti-tumor activity
B16-F10 melanoma tumor
  B16-F10 tumor growth (tumor volume): not significant different from that in mice that received normal saline
TC-1-GR cells
  Ratio of IC50 in TC-1-GR to that in TC-1: 2,497
TC-1-GR cells; [3]
  Ratio of IC50 values in TC-1-GR cells: 1
TC-1-GR cells; Mus musculus, MTT, 48 h incubation, RRM1 over-expressing
  IC50: 36700 ± 5100 nM
TC-1 cells
  IC50: 14.7 ± 2.8 nM
PANC-1 cells [1]
  Ratio of IC50 in PANC-1 to that in MIA PaCa-2: >8,000
PANC-1 cells [1]; Homo sapiens, PANC-1, MTT, 96 h incubation, RRM2 over-expressing
  IC50: > 400000 nM
PANC-1 cells [1]; after 96 h of incubation with 400 μM
  PANC-1 cells still alive: more than 50%
PANC-1 cells [1]; listed as gemcitabine HCl
  Ratio of IC50 in PANC-1 to that in MIA PaCa-2: more than 8,000
PANC-1 cells [2]
  IC50: 50 nM
L1210 wt cells
  IC50: 1.3 ± 0.3 nM
